# Experiments:
# [1] = test system: giant foxtail; test: Test B pre/postemergence giant foxtail; assay type: in vivo, Setaria faberii
# How it was run: (§1)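 Herbicidal effect was estimated by eye on a ten-point control scale after plants spent twelve to sixteen days in a greenhouse following soil or foliar treatment. Foliar sprays targeted plants at one to four leaves; all doses were formulated in a non-phytotoxic solvent with surfactant.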
# [2] = test system: corn; test: Test B pre/postemergence corn; assay type: in vivo, Zea mays
# How it was run: as §1
# [3] = test system: morningglory; test: Test B pre/postemergence morningglory; assay type: in vivo, Ipomoea hederacea
# How it was run: as §1
# [4] = test system: pigweed; test: Test B pre/postemergence pigweed; assay type: in vivo, Amaranthus retroflexus
# How it was run: as §1
# [5] = test system: purple nutsedge; test: Test B pre/postemergence purple nutsedge; assay type: in vivo, Cyperus rotundus
# How it was run: as §1
# [6] = test system: sugar beet; test: Test B pre/postemergence sugar beet; assay type: in vivo, Beta vulgaris
# How it was run: as §1
# [7] = test system: bamyardgrass; test: Test B flood test barnyardgrass; assay type: in vivo, Echinochloa crus-galli
# How it was run: (§2)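 Flood test on plants grown to the 2-leaf stage; treated plants kept in greenhouse twelve to sixteen days, then visually rated against controls on a 0 (no effect) to 10 (complete control) scale.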
# [8] = test system: wheat; test: Test B pre/postemergence wheat; assay type: in vivo, Triticum aestivum
# How it was run: as §1
# [9] = test system: crabgrass; test: Test B pre/postemergence crabgrass; assay type: in vivo, Digitaria sanguinalis
# How it was run: as §1
# [10] = test system: rice; test: Test B flood test rice; assay type: in vivo, Oryza sativa
# How it was run: as §2
# [11] = test system: surinam grass; test: Test B pre/postemergence surinam grass; assay type: in vivo, Brachiaria decumbens
# How it was run: as §1
# [12] = test system: duck salad; test: Test B flood test duck salad; assay type: in vivo, Heteranthera limosa
# How it was run: as §2
# [13] = test system: rape; test: Test B pre/postemergence rape; assay type: in vivo, Brassica napus
# How it was run: as §1
# [14] = test system: wild oat; test: Test B pre/postemergence wild oat; assay type: in vivo, Avena fatua
# How it was run: as §1
# [15] = test system: smallflower flatsedge; test: Test B flood test smallflower flatsedge; assay type: in vivo, Cyperus difformis
# How it was run: as §2
# [16] = test system: blackgrass; test: Test B pre/postemergence blackgrass; assay type: in vivo, Alopecurus myosuroides
# How it was run: as §1
# [17] = test system: velvetleaf; test: Test B pre/postemergence velvetleaf; assay type: in vivo, Abutilon theophrasti
# How it was run: as §1
# [18] = test system: cocklebur; test: Test B pre/postemergence cocklebur; assay type: in vivo, Xanthium strumarium
# How it was run: as §1
# [19] = test system: soybean; test: Test B pre/postemergence soybean; assay type: in vivo, Glycine max
# How it was run: as §1
# [20] = test system: bedstraw; test: Test B pre/postemergence bedstraw; assay type: in vivo, Galium aparine
# How it was run: as §1
# [21] = Preemergence, Rate 31 g/ha, visual rating, scale 0 to 10 (0 no effect, 10 complete control)
# [22] = Preemergence, Rate 62 g/ha, scale of 0 to 10 where 0 is no effect and 10 is complete control
# [23] = Preemergence, Rate 250 g/ha, scale of 0 to 10 where 0 is no effect and 10 is complete control
# [24] = Rate 31 g/ha, Postemergence, scale 0 to 10
# [25] = Rate 62 g/ha, Postemergence, scale of 0 to 10 where 0 is no effect and 10 is complete control
# [26] = Rate 125 g/ha, Postemergence, scale 0 to 10
# [27] = Rate 125 g/ha, Preemergence, scale of 0 to 10 where 0 is no effect and 10 is complete control
# [28] = Rate 62 g/ha, headed Pre-emergence (flood test species), scale 0 to 10 (0 no effect, 10 complete control)
# [29] = Rate 250 g/ha, Pre-emergence, flood-test species, scale 0 to 10, 0 is no effect, 10 is complete control
compound,measurement,setting,value
CC(C)N(C(=O)n1oc(=O)n(CC#C[Si](C)(C)C)c1=O)c1ccc(F)cc1 [Compound 213],Giant foxtail plant response rating,[1]; [21],0
same,Giant foxtail plant response rating,[1]; [22],0
same,Giant foxtail plant response rating,[1]; [23],4
same,Giant foxtail plant response rating,[1]; [24],0
same,Giant foxtail plant response rating,[1]; [25],0
same,Giant foxtail plant response rating,[1]; [26],0
same,Giant foxtail plant response rating,[1]; [27],2
same,"Plant response rating (0 to 10; 0 is no effect, 10 is complete control), Giant foxtail","[1]; Rate 250 g/ha, Postemergence",2
same,Corn plant response rating,[2]; [21],0
same,Corn plant response rating,[2]; [22],0
same,Corn plant response rating,[2]; [23],0
same,Corn plant response rating,[2]; [24],0
same,Corn plant response rating,[2]; [25],0
same,Corn plant response rating,[2]; [26],0
same,Corn plant response rating,[2]; [27],0
same,"Plant response rating (0 to 10; 0 is no effect, 10 is complete control), Corn","[2]; Rate 250 g/ha, Postemergence",0
same,Morningglory plant response rating,[3]; [21],0
same,Morningglory plant response rating,[3]; [22],0
same,Morningglory plant response rating,[3]; [23],3
same,Morningglory plant response rating,[3]; [24],5
same,Morningglory plant response rating,[3]; [25],6
same,Morningglory plant response rating,[3]; [26],6
same,Morningglory plant response rating,[3]; [27],0
same,"Plant response rating (0 to 10; 0 is no effect, 10 is complete control), Morningglory","[3]; Rate 250 g/ha, Postemergence",7
same,Redroot pigweed plant response rating,[4]; [21],0
same,Redroot pigweed plant response rating,[4]; [22],0
same,Redroot pigweed plant response rating,[4]; [23],5
same,Redroot pigweed plant response rating,[4]; [24],0
same,Redroot pigweed plant response rating,[4]; [25],5
same,Redroot pigweed plant response rating,[4]; [26],7
same,Redroot pigweed plant response rating,[4]; [27],4
same,"Plant response rating (0 to 10; 0 is no effect, 10 is complete control), Redroot pigweed","[4]; Rate 250 g/ha, Postemergence",7
same,Nutsedge plant response rating,[5]; [22],0
same,Nutsedge plant response rating,[5]; [24],0
same,Nutsedge plant response rating,[5]; [25],0
same,Nutsedge plant response rating,[5]; [26],0
same,Nutsedge plant response rating,[5]; [27],0
same,"Plant response rating (0 to 10; 0 is no effect, 10 is complete control), Nutsedge","[5]; Rate 250 g/ha, Postemergence",0
same,Sugarbeets plant response rating,[6]; [21],0
same,Sugarbeets plant response rating,[6]; [22],0
same,Sugarbeets plant response rating,[6]; [23],0
same,Sugarbeets plant response rating,[6]; [25],3
same,Sugarbeets plant response rating,[6]; [26],3
same,Sugarbeets plant response rating,[6]; [27],0
same,"Plant response rating (0 to 10; 0 is no effect, 10 is complete control), Sugarbeets","[6]; Rate 250 g/ha, Postemergence",4
same,Barnyardgrass plant response rating,[7]; [28],0
same,Barnyardgrass plant response rating,[7]; [29],0
same,Wheat plant response rating,[8]; [21],0
same,Wheat plant response rating,[8]; [22],0
same,Wheat plant response rating,[8]; [23],0
same,Wheat plant response rating,[8]; [25],0
same,Wheat plant response rating,[8]; [26],0
same,Wheat plant response rating,[8]; [27],0
same,"Plant response rating (0 to 10; 0 is no effect, 10 is complete control), Wheat","[8]; Rate 250 g/ha, Postemergence",2
same,Crabgrass plant response rating,[9]; [21],0
same,Crabgrass plant response rating,[9]; [22],0
same,Crabgrass plant response rating,[9]; [23],3
same,Crabgrass plant response rating,[9]; [24],0
same,Crabgrass plant response rating,[9]; [25],0
same,Crabgrass plant response rating,[9]; [26],0
same,Crabgrass plant response rating,[9]; [27],0
same,"Plant response rating (0 to 10; 0 is no effect, 10 is complete control), Crabgrass","[9]; Rate 250 g/ha, Postemergence",2
same,Rice plant response rating,[10]; [28],0
same,Rice plant response rating,[10]; [29],0
same,B. signalgrass plant response rating,[11]; [21],0
same,B. signalgrass plant response rating,[11]; [22],0
same,B. signalgrass plant response rating,"[11]; Preemergence, Rate 250 g/ha, scale 0 to 10, 0 is no effect, 10 is complete control",0
same,B. signalgrass plant response rating,[11]; [24],0
same,B. signalgrass plant response rating,[11]; [25],0
same,B. signalgrass plant response rating,"[11]; Rate 125 g/ha, Postemergence, scale 0 (no effect) to 10 (complete control)",0
same,B. signalgrass plant response rating,[11]; [27],0
same,"Plant response rating (0 to 10; 0 is no effect, 10 is complete control), B. signalgrass","[11]; Rate 250 g/ha, Postemergence",2
same,Ducksalad plant response rating,[12]; [28],0
same,Ducksalad plant response rating,[12]; [29],0
same,Rape plant response rating,[13]; [21],0
same,Rape plant response rating,[13]; [22],0
same,Rape plant response rating,[13]; [23],0
same,Rape plant response rating,[13]; [24],0
same,Rape plant response rating,[13]; [25],0
same,Rape plant response rating,[13]; [26],2
same,Rape plant response rating,[13]; [27],0
same,"Plant response rating (0 to 10; 0 is no effect, 10 is complete control), Rape","[13]; Rate 250 g/ha, Postemergence",3
same,Wild oats plant response rating,[14]; [21],0
same,Wild oats plant response rating,[14]; [22],0
same,Wild oats plant response rating,[14]; [23],0
same,Wild oats plant response rating,[14]; [25],0
same,Wild oats plant response rating,[14]; [26],0
same,Wild oats plant response rating,[14]; [27],0
same,"Plant response rating (0 to 10; 0 is no effect, 10 is complete control), Wild oats","[14]; Rate 250 g/ha, Postemergence",2
same,S. Flatsedge plant response rating,[15]; [28],0
same,S. Flatsedge plant response rating,[15]; [29],0
same,Blackgrass plant response rating,[16]; [21],0
same,Blackgrass plant response rating,[16]; [22],0
same,Blackgrass plant response rating,[16]; [23],0
same,Blackgrass plant response rating,[16]; [24],0
same,Blackgrass plant response rating,[16]; [25],0
same,Blackgrass plant response rating,[16]; [26],0
same,Blackgrass plant response rating,[16]; [27],0
same,"Plant response rating (0 to 10; 0 is no effect, 10 is complete control), Blackgrass","[16]; Rate 250 g/ha, Postemergence",2
same,Velvetleaf plant response rating,[17]; [21],0
same,Velvetleaf plant response rating,[17]; [22],0
same,Velvetleaf plant response rating,[17]; [23],0
same,Velvetleaf plant response rating,[17]; [25],0
same,Velvetleaf plant response rating,[17]; [26],0
same,Velvetleaf plant response rating,[17]; [27],0
same,"Plant response rating (0 to 10; 0 is no effect, 10 is complete control), Velvetleaf","[17]; Rate 250 g/ha, Postemergence",0
same,Cocklebur plant response rating,[18]; [22],0
same,Cocklebur plant response rating,[18]; [24],0
same,Cocklebur plant response rating,[18]; [25],0
same,Cocklebur plant response rating,[18]; [26],0
same,Cocklebur plant response rating,[18]; [27],0
same,"Plant response rating (0 to 10; 0 is no effect, 10 is complete control), Cocklebur","[18]; Rate 250 g/ha, Postemergence",0
same,Soybean plant response rating,[19]; [21],0
same,Soybean plant response rating,[19]; [22],0
same,Soybean plant response rating,[19]; [23],0
same,Soybean plant response rating,[19]; [25],1
same,Soybean plant response rating,[19]; [26],1
same,Soybean plant response rating,[19]; [27],0
same,"Plant response rating (0 to 10; 0 is no effect, 10 is complete control), Soybean","[19]; Rate 250 g/ha, Postemergence",2
same,Bedstraw plant response rating,[20]; [21],0
same,Bedstraw plant response rating,[20]; [22],0
same,Bedstraw plant response rating,[20]; [23],0
same,Bedstraw plant response rating,[20]; [24],0
same,Bedstraw plant response rating,[20]; [25],0
same,Bedstraw plant response rating,[20]; [26],3
same,Bedstraw plant response rating,[20]; [27],0
same,"Plant response rating (0 to 10; 0 is no effect, 10 is complete control), Bedstraw","[20]; Rate 250 g/ha, Postemergence",3
